Measured values published in patent publication US20110003994A1, “CYCLOALKANE DERIVATIVE” (Dainippon Sumitomo Pharma Co., Ltd., priority 2009, published 2011).

Legend:
[1] = target: T1, human D2 receptor (Homo sapiens, UniProt P14416); test: Binding assay for D2 receptor using [3H] spiperone; details: test compound 100 nM, cell membrane expressing human D2 receptor, read-out: Binding inhibitory rate (%) for D2 receptor (100 nM)
T1 construct: expressed in transfected cells
Experimental: In general, there is clinically some correlation between antipsychotic action and antagonistic action for dopamine D2 receptor. The experimental method used herein is a binding assay for D2 receptor which is one of the tests evaluating D2 receptor action in vitro, According to the known method (e.g. Japan, J. Pharmacol., 53, 321-329 (1990)), the above-captioned experiment was carried out using [3H] spiperone, i.e., the binding amount of [3H] spiperone to the preparation cell membrane expressing human D2 receptor was measured, and then the binding inhibitory rate by the test compound (100 nM) was measured/calculated.

[2] = Cataleptic action (pole test); details: in vivo, ip; male rat, intraperitoneal, one hour after administration; dose inducing catalepsy in 50% of the rats
Experimental: The cataleptic action which is a typical central nervous system side-effect of antipsychotic agents in the clinical study was evaluated as follows. The test substance was intraperitoneally administered to a male rat. One hour later, the rat was made to hold on a pole three times which is horizontally set at a height of 9 cm. When the rat retained the unnatural stretched pose for 30 seconds even one time out of three times, the rat was evaluated as cataleptic positive. The dose for inducing 50% the rats to the catalepsy: ED50 value was calculated.

[3] = system: methamphetamine-induced movement of the rat; test: Anti-methamphetamine test (movement measured with Supermex); format: in vivo; details: male rat, intraperitoneal, 30 min before methamphetamine 1 mg/kg i.p.; movement measured for 90 minutes; dose for 50% inhibition; read-out: Antidopaminergic action ED50
Experimental: The anti-methamphetamine test which is a typical in vivo test for evaluating antipsychotic action in the clinical study was carried out as follows. The test substance was intraperitoneally administered to a male rat, and 30 minutes later methamphetamine (1 mg/kg) was intraperitoneally administered to the male rat. Ten minutes after completing the administrations, the movement of the rat was measured with Supermex for 90 minutes, and the dose for 50% inhibition: ED50 value was calculated.

T1 sequence (P14416 whole entry): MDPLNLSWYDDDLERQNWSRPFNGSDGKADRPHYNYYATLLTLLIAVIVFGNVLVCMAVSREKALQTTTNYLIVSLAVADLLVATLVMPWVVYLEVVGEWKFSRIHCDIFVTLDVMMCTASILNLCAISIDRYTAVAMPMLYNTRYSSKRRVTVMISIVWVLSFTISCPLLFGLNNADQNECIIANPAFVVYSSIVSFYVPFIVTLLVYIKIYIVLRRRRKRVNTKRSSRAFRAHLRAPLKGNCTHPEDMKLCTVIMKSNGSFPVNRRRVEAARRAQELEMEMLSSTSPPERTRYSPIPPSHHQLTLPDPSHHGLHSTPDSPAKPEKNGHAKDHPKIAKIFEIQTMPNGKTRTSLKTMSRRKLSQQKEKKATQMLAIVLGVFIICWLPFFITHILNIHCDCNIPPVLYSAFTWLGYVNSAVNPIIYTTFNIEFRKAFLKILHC

Structure (SMILES) | inhibition at 0.1 µM [1] [%] | ED50 at 1 h [2] [mg/kg] | ED50 [3] [mg/kg]
Cc1cccc(/C=C/C(=O)NC[C@@H]2CCCC[C@@H]2CN2CCN(c3nsc4ccccc34)CC2)c1 [Example 13] | 92 | – | –
COc1cccc(/C=C/C(=O)NC[C@@H]2CCCC[C@@H]2CN2CCN(c3nsc4ccccc34)CC2)c1OC [Example 14] | 92 | – | –
COc1ccccc1/C=C/C(=O)NC[C@@H]1CCCC[C@@H]1CN1CCN(c2nsc3ccccc23)CC1 [Example 15] | 93 | – | –
O=C(/C=C/c1ccccc1[N+](=O)[O-])NC[C@@H]1CCCC[C@@H]1CN1CCN(c2nsc3ccccc23)CC1 [Example 16] | 94 | – | –
O=C(/C=C/c1ccc2c(c1)OCO2)NC[C@@H]1CCCC[C@@H]1CN1CCN(c2nsc3ccccc23)CC1 [Example 21] | 91 | – | –
COc1ccccc1/C=C/C(=O)NC[C@H]1CCCC[C@@H]1CN1CCN(c2nsc3ccccc23)CC1 [Example 32] | 91 | – | –
O=C(/C=C/c1ccccc1[N+](=O)[O-])NC[C@H]1CCCC[C@@H]1CN1CCN(c2nsc3ccccc23)CC1 [Example 33] | 90 | – | –
O=C(NC[C@H]1CCCC[C@@H]1CN1CCN(c2nsc3ccccc23)CC1)c1ccc2c(c1)OCO2 [Example 36] | 92 | – | –
O=C(Cc1ccc(Cl)cc1)NC[C@H]1CCCC[C@@H]1CN1CCN(c2nsc3ccccc23)CC1 [Example 37] | 90 | – | –
O=C(/C=C/c1ccccc1F)NC[C@H]1CCCC[C@@H]1CN1CCN(c2nsc3ccccc23)CC1 [Example 44] | 91 | – | –
Cc1ccccc1/C=C/C(=O)NC[C@H]1CCCC[C@H]1CN1CCN(c2nsc3ccccc23)CC1 [Example 60] | 91 | – | –
COc1cccc(/C=C/C(=O)NC[C@H]2CCCC[C@H]2CN2CCN(c3nsc4ccccc34)CC2)c1OC [Example 62] | 91 | – | –
O=C(/C=C/c1ccccc1[N+](=O)[O-])NC[C@H]1CCCC[C@H]1CN1CCN(c2nsc3ccccc23)CC1 [Example 64] | 92 | – | –
O=C(NC[C@H]1CCCC[C@H]1CN1CCN(c2nsc3ccccc23)CC1)c1ccc2c(c1)OCO2 [Example 67] | 90 | – | –
O=C(/C=C/c1ccc2c(c1)OCO2)NC[C@H]1CCCC[C@H]1CN1CCN(c2nsc3ccccc23)CC1 [Example 69] | 91 | – | –
O=C(NC[C@@H]1CCCC[C@H]1CN1CCN(c2nsc3cc(F)ccc23)CC1)c1ccc2c(c1)OCO2 [Example 82] | 94 | – | –
O=C(/C=C/c1ccccc1[N+](=O)[O-])NC[C@@H]1CCCC[C@H]1CN1CCC(c2n[nH]c3cc(F)ccc23)CC1 [Example 239] | 95 | – | –
O=S(=O)(NC[C@@H]1CCCC[C@H]1CN1CCC(c2n[nH]c3cc(F)ccc23)CC1)c1cccc(-c2ccccc2)c1 [Example 240] | 85 | – | –
COc1ccc(OC)c(S(=O)(=O)NC[C@@H]2CCCC[C@H]2CN2CCC(c3n[nH]c4cc(F)ccc34)CC2)c1 [Example 241] | 95 | – | –
O=C(NC[C@@H]1CCCC[C@H]1CN1CCC(c2n[nH]c3cc(F)ccc23)CC1)c1ccc2c(c1)OCO2 [Example 242] | 95 | – | –
O=C(Cc1ccc(Cl)cc1)NC[C@@H]1CCCC[C@H]1CN1CCC(c2n[nH]c3cc(F)ccc23)CC1 [Example 243] | 94 | – | –

Further lines, with some results ahead:

inhibition at 0.1 µM [1] [%] | Structure (SMILES) | ED50 at 1 h [2] [mg/kg] | ED50 [3] [mg/kg]
95 | O=C(/C=C/c1ccc2c(c1)OCO2)NC[C@@H]1CCCC[C@H]1CN1CCN(c2nsc3cc(F)ccc23)CC1 [Example 84] | – | –
91 | O=C1C2C3CCC(C3)C2C(=O)N1C[C@@H]1CCCC[C@H]1CN1CCN(c2nsc3cc(F)ccc23)CC1 (stereo partly drawn) [Example 85] | – | –
93 | O=C(NC[C@H]1CCC[C@@H]1CN1CCN(c2nsc3ccccc23)CC1)c1cccc(Oc2ccccc2)c1 [Example 87] | > 135 | 4.5
91 | O=S(=O)(NC[C@H]1CCC[C@@H]1CN1CCN(c2nsc3ccccc23)CC1)c1cccc(-c2ccccc2)c1 [Example 100] | – | –
94 | COc1ccc(OC)c(S(=O)(=O)NC[C@H]2CCC[C@@H]2CN2CCN(c3nsc4ccccc34)CC2)c1 [Example 101] | – | –
95 | O=C(NC[C@H]1CCC[C@@H]1CN1CCN(c2nsc3ccccc23)CC1)c1ccc2c(c1)OCO2 [Example 102] | – | –
92 | O=C(/C=C/c1ccc2c(c1)OCO2)NC[C@H]1CCC[C@@H]1CN1CCN(c2nsc3ccccc23)CC1 [Example 104] | – | –
95 | Cc1cccc(/C=C/C(=O)NC[C@H]2C[C@@H]2CN2CCN(c3nsc4ccccc34)CC2)c1 [Example 137] | – | –
91 | COc1ccccc1/C=C/C(=O)NC[C@H]1C[C@@H]1CN1CCN(c2nsc3ccccc23)CC1 [Example 139] | – | –
92 | C=C1[C@H](CNC(=O)/C=C/c2ccccc2C)[C@H]1CN1CCC(c2noc3cc(F)ccc23)CC1 [Example 185] | – | –
92 | C=C1[C@H](CNS(=O)(=O)c2cccc(-c3ccccc3)c2)[C@H]1CN1CCC(c2noc3cc(F)ccc23)CC1 [Example 190] | – | –
90 | C=C1[C@H](CNC(=O)c2ccc3c(c2)OCO3)[C@H]1CN1CCC(c2noc3cc(F)ccc23)CC1 [Example 192] | – | –
92 | O=C(/C=C/c1cccc(Cl)c1)NC[C@@H]1CCCC[C@H]1CN1CCC(c2noc3cc(F)ccc23)CC1 [Example 200] | > 7.2 | 0.24
93 | O=C(NC[C@@H]1CCCC[C@H]1CN1CCC(c2noc3cc(F)ccc23)CC1)c1ccc2c(c1)OCO2 [Example 221] | – | –
93 | O=C(/C=C/c1ccc2c(c1)OCO2)NC[C@@H]1CCCC[C@H]1CN1CCC(c2noc3cc(F)ccc23)CC1 [Example 222] | – | –
94 | O=C1C2C3CCC(C3)C2C(=O)N1C[C@@H]1CCCC[C@H]1CN1CCC(c2noc3ccccc23)CC1 (stereo partly drawn) [Example 223] | – | –
94 | O=C1C2C3CCC(C3)C2C(=O)N1C[C@@H]1CCCC[C@H]1CN1CCC(c2noc3ccc(F)cc23)CC1 (stereo partly drawn) [Example 225] | – | –
